According to US10336684B2, “Phenyl-(aza)cycloalkyl carboxylic acid GPR120 modulators” (BRISTOL-MYERS SQUIBB COMPANY, priority 2014, dated 2019):

Biological target: human GPR120 (Homo sapiens (Human), UniProt Q5NUL3)
Test: GPR120 pERK AlphaScreen SureFire assay (human GPR120 pERK assay)
Assay type: cell-based
Conditions: CHOA12 or CHO-K1 cells stably transfected with short form of human GPR120, 100% = 50 μM linolenic acid
Source text: GPR120 activity was monitored by measuring phosphorylation of ERK (pERK), since G protein receptors are known to activate the ERK signaling cascade either directly and/or through recruitment of arrestin that serves as a scaffold for downstream signaling events.
GPR120 pERK AlphaScreen SureFire Assay
The human and mouse GPR120-mediated intracellular phosphorylated ERK assays were established using CHOA12 cells stably transfected with the short form of human or mouse GPR120 receptor. Cells were cultured in growth medium consisting of F-12 media (Invitrogen Cat. #11765) with 5% Charcoal/Dextran FBS (Invitrogen Cat. #12676-029), 500 μg/mL GENETICIN® (Life Technologies Cat. #10131-027) and 250 μg/mL Zeocin (Invitrogen Cat. #R250-01). Cells were cryo preserved at a concentration of 2×10^7 cells/mL, in 90% Charcoal/Dextran FBS and 10% DMSO, and frozen in liquid nitrogen at a low passage number.
For the pERK assay, 2×10^7 cells/mL cryopreserved human and mouse cells were thawed rapidly in a 37° C. water bath and added to a T-225 flask containing 50 mL growth medium. The flasks were placed in a tissue culture incubator overnight (37° C., 5% CO2). The next day, cells were harvested with trypsin (Gibco Cat. #25300-054), resuspended in serum-containing growth medium and counted using a Cellometer and volume adjusted to a concentration of 0.6×10^6 cells/mL. Cells were plated into 384-well clear bottom tissue culture plates (BD Cat. #353962) at 50 μL/well, for a density of 30,000 cells/well using a MULTIDROP® and incubated for 16-18 hours (overnight) at 37° C. with 5% CO2. The next day, cells were serum starved in 30 μL of F-12 media without any serum or antibiotics for 2 hours at 37° C.
Test compounds were 3-fold, 11-point serially diluted in DMSO in a REMP assay plate (Matrix Cat. #4307) by Tecan and 5 μL was transferred into an ECHO source plate (Labcyte Cat. #LC-0200). Cells were then stimulated with 50 nL of compound dilutions using ECHO liquid handler for 7 minutes at 37° C. Compounds ranged from final assay concentrations of 33.33 μM to 0.56 nM.
The media was then dumped and cells lysed with 20 μL of 1× Lysis buffer from the AlphaScreen SureFire Phospho-ERK 1/2 Kit (Perkin Elmer Cat. #6760617M). The lysis buffer was diluted 5-fold with water before use. The plate was agitated on a shaker for 10 minutes after which 2 μL was transferred into a 384-well white proxiplate (Perkin Elmer Cat. #6008289). The SureFire assay reagent mix was prepared by mixing 60 parts Reaction Buffer, 10 parts Activation Buffer, 1 part Donor Beads, 1 part Acceptor Beads (Perkin Elmer Cat. #TGRES10K). 3.5 μL/well of this reagent mix was manually added to the proxiplate with a multichannel pipettor. Plates were spun down at 1000 rpm for 2 minutes, followed by light-protected incubation at room temperature for 2 hours. The plates were read on the Alpha-technology compatible Envision multilabel plate reader using AlphaScreen protocol according to manufacturer's specifications. The agonist effect of compounds was expressed as 100×(average sample-average blank)/(average total−average blank) where sample is the luminescence activity in the presence of test compound, blank is equal to the luminescence activity in the presence of DMSO control and the total is signal induced by 50 μM linolenic acid as reference compound. Activation data for the test compound over a range of concentrations was plotted as percentage activation of the test compound (100%=maximum response). After correcting for background, EC50 values were determined. The EC50 is defined as the concentration of test compound which produces 50% of the maximal response and was quantified using the 4 parameter logistic equation to fit the data.
The human and mouse GPR120-mediated intracellular phosphorylated ERK assays were also established using CHO-K1 cells stably transfected with the short form of human or mouse GPR120 receptor. […]

Chain of human GPR120 (Q5NUL3 whole entry): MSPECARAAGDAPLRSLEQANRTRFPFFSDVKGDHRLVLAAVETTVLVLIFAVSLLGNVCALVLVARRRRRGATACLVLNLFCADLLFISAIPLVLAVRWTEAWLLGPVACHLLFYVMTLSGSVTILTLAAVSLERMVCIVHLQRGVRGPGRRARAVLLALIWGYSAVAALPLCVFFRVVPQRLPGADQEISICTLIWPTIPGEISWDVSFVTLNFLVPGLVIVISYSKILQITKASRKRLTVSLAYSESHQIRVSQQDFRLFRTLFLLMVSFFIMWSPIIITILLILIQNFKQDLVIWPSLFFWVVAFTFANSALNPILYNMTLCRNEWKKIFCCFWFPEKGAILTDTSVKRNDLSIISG

Row | EC50 [µM] | Compound
1 | 5.27 | O=C(O)COCCc1ccc(N2CCC(Oc3ccccc3)C2)cc1 (stereo not drawn) [Example 59]
2 | 0.22 | O=C(O)CCCCc1ccc(N2CC[C@H](Oc3ccccc3)C2)cc1 [Example 60]
3 | 3.38 | O=C(O)CCCCc1ccc(N2CC[C@@H](Oc3ccccc3)C2)cc1 [Example 61]
4 | 10.3 | O=C(O)[C@@H]1C[C@H]1CCc1ccc(N2CCCC(Oc3ccccc3)CC2)cc1 (stereo partly drawn) [Example 62]
5 | 4.32 | O=C(O)COCCc1ccc(N2CC(Oc3ccccc3)C2)cc1 [Example 63]

The remaining lines, values behind:

Row | Compound | EC50 [µM]
6 | O=C(O)[C@@H]1C[C@H]1CCc1ccc(N2CCC[C@H](Oc3ccc(F)cc3)C2)cc1 [Example 52] | 1.54
7 | O=C(O)[C@H]1C[C@@H]1CCc1ccc(N2CCC[C@@H](c3ccccc3)C2)cc1 [Example 53] | 3.61
8 | O=C(O)[C@H]1C[C@@H]1CCc1ccc(N2CCC[C@H](c3ccccc3)C2)cc1 [Example 54] | 1.34
9 | O=C(O)[C@@H]1C[C@H]1CCc1ccc(N2CCC[C@@H](c3ccccc3)C2)cc1 [Example 55] | 6.26
10 | O=C(O)[C@@H]1C[C@H]1CCc1ccc(N2CCC[C@H](c3ccccc3)C2)cc1 [Example 56] | 4.84
11 | O=C(O)COCCc1ccc(N2CCCC(c3ccccc3)C2)cc1 (stereo not drawn) [Example 57] | 2.26
12 | O=C(O)CCCCc1ccc(N2CCC(Oc3ccccc3)CC2)cc1 [Example 58] | 4.09
